According to patent US12371454B2, “Cyclic peptide compound having Kras inhibitory action” (priority 2019, dated 2025):
Starred links: 1 amine or outer side, 2 acyl side, 3 side chain; linkers in the order of their positions; H or OH if unused. Positions of bridges follow the written chain, without caps; N, C: chain ends. Non-standard residues stand in square brackets, D forms with d. Residues, ends and D or L forms follow the SMILES beside them. *: point of attachment. hPhe(3-Cl-4-CF3) = N[C@@H](CCc1ccc(C(F)(F)F)c(Cl)c1)C(=O)O; NMePhe(4-CF3) = CN[C@@H](Cc1ccc(C(F)(F)F)cc1)C(=O)O; X25 = CN([C@@H](Cc1ccc(C(F)F)cc1)C(=O)[*:2])[*:1]; 3Oxa8azabicyclo(3.2.1)octane = C1CC2COCC1N2*; NMePhe(4-Me) = CN[C@@H](Cc1ccc(C)cc1)C(=O)O; NMePhe(2-Me) = CN[C@@H](Cc1ccccc1C)C(=O)O; NMeAla(cPent) = CN[C@@H](CC1CCCC1)C(=O)O; NMeGly(cPent) = CN[C@H](C(=O)O)C1CCCC1; NMe4Pal = CN[C@@H](Cc1ccncc1)C(=O)O; NMeCha = CN[C@@H](CC1CCCCC1)C(=O)O; NMeChg = CN[C@H](C(=O)O)C1CCCCC1; NMeI = CC[C@H](C)[C@H](NC)C(=O)O; NMeE = CN[C@@H](CCC(=O)O)C(=O)O; NMeD = CN[C@@H](CC(=O)O)C(=O)O; NMeL = CN[C@@H](CC(C)C)C(=O)O; NMeNva = CCC[C@H](NC)C(=O)O; NMeV = CN[C@H](C(=O)O)C(C)C; NMeAbu = CC[C@H](NC)C(=O)O; NMeS = CN[C@@H](CO)C(=O)O; Morpholide = C1CN(*)CCO1; NMeA = CN[C@@H](C)C(=O)O; Pyrrolidide = C1CCN(*)C1; Ac5c = NC1(C(=O)O)CCCC1; Aze = O=C(O)[C@@H]1CCN1; Ac4c = NC1(C(=O)O)CCC1; Sar = CNCC(=O)O; Propyl = CCC*

What was measured:
[1] = target: T1, Kras and SOS1 (biotin-tagged human Kras loaded with GDP, His-tagged human SOS1) (Homo sapiens, UniProt P01116, G12D); experiment: Protein-protein interaction inhibition between Kras and SOS1 (KrasGl2D-SOS PPI) using AlphaScreen; format: binding; conditions: AlphaScreen; biotin-tagged human Kras loaded with GDP, His-tagged human SOS1; read-out: KRAS G12D-SOS PPI IC50
T1 construct: made in house; host or cells: E. coli (stated for Kras only)
T1 sequence (P01116 1-188 isoform P01116-2 G12D): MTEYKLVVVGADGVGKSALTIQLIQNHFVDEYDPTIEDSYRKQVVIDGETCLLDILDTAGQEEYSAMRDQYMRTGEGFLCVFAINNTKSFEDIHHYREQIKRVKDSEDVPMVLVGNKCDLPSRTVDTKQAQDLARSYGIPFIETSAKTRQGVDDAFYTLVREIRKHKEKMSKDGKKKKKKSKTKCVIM
Procedure, shortened: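 Energy transfer from nickel-chelate donor beads bound to His-SOS1 to streptavidin acceptor beads bound to biotin-Kras, expressed in E. coli and loaded with GDP after purification, was monitored. Donors were excited at 680 nm; singlet oxygen reaching acceptors gave emission read at 520-620 nm.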

[2] = tested on: Human pancreatic cancer cell line AsPC-1; experiment: Measurement of AsPC-1 cell growth inhibition (AsPC-1 CGI); format: cell-based; conditions: 96 h
Procedure, shortened: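 AsPC-1 cells in 15% FBS RPMI-1640 were exposed to test compound for 96 hours at 37° C, with CellTiter-Glo as endpoint.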

Row | Compound | IC50 [1] | IC50 [2]
1 | CC[C@H](C)[C@@H]1NC(=O)[C@H](CC(C)C)N(C)C(=O)C[C@@H](C(=O)N(C)C)N(C)C(=O)[C@H](C2CCCC2)N(C)C(=O)C2(CCCC2)NC(=O)[C@H](Cc2ccncc2)N(C)C(=O)[C@H](CCc2ccc(C(F)(F)F)c(Cl)c2)NC(=O)CN(C)C(=O)[C@H](CC2CCCCC2)N(C)C(=O)[C@@H]2CCN2C(=O)[C@H](C)N(C)C1=O [Compound 1913] ([NMeL]I[NMeA][Aze][NMeCha][Sar][hPhe(3-Cl-4-CF3)][NMe4Pal][Ac5c][NMeGly(cPent)][NMeD]-NMe2; lactam N-11) | 0.0011 µM | 0.1 to 0.5 µM
2 | CC[C@H](C)[C@@H]1NC(=O)[C@H](CC)N(C)C(=O)C[C@@H](C(=O)N2CCOCC2)N(C)C(=O)[C@H](C2CCCCC2)N(C)C(=O)C2(CCCC2)NC(=O)[C@@H]2CCCN2C(=O)[C@H](CCc2ccc(C(F)(F)F)c(Cl)c2)NC(=O)CN(C)C(=O)[C@H](CC2CCCCC2)N(C)C(=O)CN(C)C(=O)CN(C)C1=O [Compound 1915] ([NMeAbu]I[Sar][Sar][NMeCha][Sar][hPhe(3-Cl-4-CF3)]P[Ac5c][NMeChg][NMeD]-Morpholide; lactam N-11) | 0.00038 µM | 0.05 to 0.1 µM
3 | CCC[C@H]1C(=O)N[C@@H]([C@@H](C)CC)C(=O)N(C)CC(=O)N(C)CC(=O)N(C)[C@@H](CC2CCCC2)C(=O)N(C)CC(=O)N[C@@H](CCc2ccc(C(F)(F)F)c(Cl)c2)C(=O)N2CCC[C@H]2C(=O)NC2(CCCC2)C(=O)N(C)[C@@H](C2CCCCC2)C(=O)N(C)[C@H](C(=O)N2C3CCC2COC3)CC(=O)N1C [Compound 1916] ([NMeNva]I[Sar][Sar][NMeAla(cPent)][Sar][hPhe(3-Cl-4-CF3)]P[Ac5c][NMeChg][NMeD]-{3Oxa8azabicyclo(3.2.1)octane}; lactam N-11) | 0.00099 µM | 0.1 to 0.5 µM
4 | CC[C@H](C)[C@@H]1NC(=O)[C@H](CC(C)C)N(C)C(=O)C[C@@H](C(=O)N(C)C)N(C)C(=O)[C@H](C2CCCC2)N(C)C(=O)C2(CCCC2)NC(=O)[C@H](CCC(=O)NC)N(C)C(=O)[C@H](CCc2ccc(C(F)(F)F)c(Cl)c2)NC(=O)CN(C)C(=O)[C@H](CC2CCCCC2)N(C)C(=O)[C@@H]2CCN2C(=O)[C@H](C)N(C)C1=O [Compound 1921] ([NMeL]I[NMeA][Aze][NMeCha][Sar][hPhe(3-Cl-4-CF3)][NMeE](NHMe)[Ac5c][NMeGly(cPent)][NMeD]-NMe2; lactam N-11) | 0.00083 µM | 0.1 to 0.5 µM
5 | CC[C@H](C)[C@@H]1NC(=O)[C@H](CC(C)C)N(C)C(=O)C[C@@H](C(=O)N2CCOCC2)N(C)C(=O)[C@H](C2CCCCC2)N(C)C(=O)C2(CCCC2)NC(=O)[C@@H]2CCCN2C(=O)[C@H](CCc2ccc(C(F)(F)F)c(Cl)c2)NC(=O)CN(C)C(=O)[C@H](CC2CCCC2)N(C)C(=O)CN(C)C(=O)CN(C)C1=O [Compound 1923] ([NMeL]I[Sar][Sar][NMeAla(cPent)][Sar][hPhe(3-Cl-4-CF3)]P[Ac5c][NMeChg][NMeD]-Morpholide; lactam N-11) | 0.00089 µM | 0.05 to 0.1 µM
6 | CC[C@H](C)[C@@H]1NC(=O)[C@H](CC(C)C)N(C)C(=O)C[C@@H](C(=O)N(C)C)N(C)C(=O)[C@H]([C@@H](C)CC)N(C)C(=O)C2(CCCC2)NC(=O)[C@H](Cc2ccccc2C)N(C)C(=O)[C@H](CCc2ccc(C(F)(F)F)c(Cl)c2)NC(=O)CN(C)C(=O)[C@H](Cc2ccc(C)cc2)N(C)C(=O)[C@@H]2CCN2C(=O)[C@H](C)N(C)C1=O [Compound 1924] ([NMeL]I[NMeA][Aze][NMePhe(4-Me)][Sar][hPhe(3-Cl-4-CF3)][NMePhe(2-Me)][Ac5c][NMeI][NMeD]-NMe2; lactam N-11) | 0.0051 µM | 0.1 to 0.5 µM
7 | CC[C@H](C)[C@@H]1NC(=O)[C@H](CC(C)C)N(C)C(=O)C[C@@H](C(=O)N(C)C)N(C)C(=O)[C@H](C2CCCC2)N(C)C(=O)C2(CCCC2)NC(=O)[C@H](Cc2ccc(C(F)F)cc2)N(C)C(=O)[C@H](CCc2ccc(C(F)(F)F)c(Cl)c2)NC(=O)CN(C)C(=O)[C@H](CC2CCCCC2)N(C)C(=O)[C@@H]2CCN2C(=O)[C@H](C)N(C)C1=O [Compound 1926] ([NMeL]I[NMeA][Aze][NMeCha][Sar][hPhe(3-Cl-4-CF3)][X25][Ac5c][NMeGly(cPent)][NMeD]-NMe2; lactam N-11) | 0.021 µM | 0.1 to 0.5 µM
8 | CC(C)C[C@H]1C(=O)N[C@@H](C(C)C)C(=O)N(C)CC(=O)N(C)CC(=O)N(C)[C@@H](CC2CCCCC2)C(=O)N(C)CC(=O)N[C@@H](CCc2ccc(C(F)(F)F)c(Cl)c2)C(=O)N2CCC[C@H]2C(=O)NC2(CCCC2)C(=O)N(C)[C@@H](C2CCCCC2)C(=O)N(C)[C@H](C(=O)N2C3CCC2COC3)CC(=O)N1C [Compound 1928] ([NMeL]V[Sar][Sar][NMeCha][Sar][hPhe(3-Cl-4-CF3)]P[Ac5c][NMeChg][NMeD]-{3Oxa8azabicyclo(3.2.1)octane}; lactam N-11) | 0.0005 µM | 0.1 to 0.5 µM
9 | CCCOC[C@H]1C(=O)N(C)CC(=O)N[C@@H](CCc2ccc(C(F)(F)F)c(Cl)c2)C(=O)N2CCC[C@H]2C(=O)NC2(CCCC2)C(=O)N(C)[C@@H](C2CCCCC2)C(=O)N(C)[C@H](C(=O)N2CCCC2)CC(=O)N(C)[C@@H](CC)C(=O)N[C@@H]([C@@H](C)CC)C(=O)N(C)CC(=O)N(C)CC(=O)N1C [Compound 1929] ([NMeAbu]I[Sar][Sar][NMeS](Propyl)[Sar][hPhe(3-Cl-4-CF3)]P[Ac5c][NMeChg][NMeD]-Pyrrolidide; lactam N-11) | 0.00061 µM | 0.1 to 0.5 µM
10 | CC[C@H](C)[C@@H]1NC(=O)[C@H](CC(C)C)N(C)C(=O)C[C@@H](C(=O)N(C)C)N(C)C(=O)[C@H]([C@@H](C)CC)N(C)C(=O)C2(CCCC2)NC(=O)[C@H](Cc2ccc(C(F)F)cc2)N(C)C(=O)[C@H](CCc2ccc(C(F)(F)F)c(Cl)c2)NC(=O)CN(C)C(=O)[C@H](Cc2ccc(C)cc2)N(C)C(=O)[C@@H]2CCN2C(=O)[C@H](C)N(C)C1=O [Compound 1930] ([NMeL]I[NMeA][Aze][NMePhe(4-Me)][Sar][hPhe(3-Cl-4-CF3)][X25][Ac5c][NMeI][NMeD]-NMe2; lactam N-11) | 0.0036 µM | 0.02 to 0.05 µM
11 | CC[C@H](C)[C@@H]1NC(=O)[C@H](CC)N(C)C(=O)C[C@@H](C(=O)N2CCCC2)N(C)C(=O)[C@H](C2CCCCC2)N(C)C(=O)C2(CCCC2)NC(=O)[C@@H]2CCCN2C(=O)[C@H](CCc2ccc(C(F)(F)F)c(Cl)c2)NC(=O)CN(C)C(=O)[C@H](CC2CCCC2)N(C)C(=O)CN(C)C(=O)CN(C)C1=O [Compound 1931] ([NMeAbu]I[Sar][Sar][NMeAla(cPent)][Sar][hPhe(3-Cl-4-CF3)]P[Ac5c][NMeChg][NMeD]-Pyrrolidide; lactam N-11) | 0.00056 µM | 0.1 to 0.5 µM
12 | CC[C@H](C)[C@@H]1NC(=O)[C@H](CC(C)C)N(C)C(=O)C[C@@H](C(=O)N2C3CCC2COC3)N(C)C(=O)[C@H](C2CCCCC2)N(C)C(=O)C2(CCCC2)NC(=O)[C@@H]2CCCN2C(=O)[C@H](CCc2ccc(C(F)(F)F)c(Cl)c2)NC(=O)CN(C)C(=O)[C@H](Cc2ccc(C(F)(F)F)cc2)N(C)C(=O)CN(C)C(=O)CN(C)C1=O [Compound 1932] ([NMeL]I[Sar][Sar][NMePhe(4-CF3)][Sar][hPhe(3-Cl-4-CF3)]P[Ac5c][NMeChg][NMeD]-{3Oxa8azabicyclo(3.2.1)octane}; lactam N-11) | 0.0011 µM | 0.05 to 0.1 µM
13 | CCC[C@H]1C(=O)N[C@@H]([C@@H](C)CC)C(=O)N(C)CC(=O)N(C)CC(=O)N(C)[C@@H](CC2CCCCC2)C(=O)N(C)CC(=O)N[C@@H](CCc2ccc(C(F)(F)F)c(Cl)c2)C(=O)N2CCC[C@H]2C(=O)NC2(CCCC2)C(=O)N(C)[C@@H](C2CCCCC2)C(=O)N(C)[C@H](C(=O)N2C3CCC2COC3)CC(=O)N1C [Compound 1933] ([NMeNva]I[Sar][Sar][NMeCha][Sar][hPhe(3-Cl-4-CF3)]P[Ac5c][NMeChg][NMeD]-{3Oxa8azabicyclo(3.2.1)octane}; lactam N-11) | 0.00059 µM | 0.05 to 0.1 µM
14 | CC[C@H](C)[C@@H]1NC(=O)[C@H](CC(C)C)N(C)C(=O)C[C@@H](C(=O)N2CCOCC2)N(C)C(=O)[C@H](C(C)C)N(C)C(=O)C2(CCCC2)NC(=O)[C@@H]2CCCN2C(=O)[C@H](CCc2ccc(C(F)(F)F)c(Cl)c2)NC(=O)CN(C)C(=O)[C@H](CC2CCCCC2)N(C)C(=O)CN(C)C(=O)CN(C)C1=O [Compound 1934] ([NMeL]I[Sar][Sar][NMeCha][Sar][hPhe(3-Cl-4-CF3)]P[Ac5c][NMeV][NMeD]-Morpholide; lactam N-11) | 0.001 µM | 0.1 to 0.5 µM
15 | CC[C@H](C)[C@@H]1NC(=O)[C@H](CC(C)C)N(C)C(=O)C[C@@H](C(=O)N2C3CCC2COC3)N(C)C(=O)[C@H](C2CCCCC2)N(C)C(=O)C2(CCC2)NC(=O)[C@@H]2CCCN2C(=O)[C@H](CCc2ccc(C(F)(F)F)c(Cl)c2)NC(=O)CN(C)C(=O)[C@H](CC2CCCCC2)N(C)C(=O)CN(C)C(=O)CN(C)C1=O [Compound 1936] ([NMeL]I[Sar][Sar][NMeCha][Sar][hPhe(3-Cl-4-CF3)]P[Ac4c][NMeChg][NMeD]-{3Oxa8azabicyclo(3.2.1)octane}; lactam N-11) | 0.00068 µM | 0.02 to 0.05 µM
16 | CC[C@H](C)[C@@H]1NC(=O)[C@H](CC(C)C)N(C)C(=O)C[C@@H](C(=O)N2C3CCC2COC3)N(C)C(=O)[C@H]([C@@H](C)CC)N(C)C(=O)C2(CCCC2)NC(=O)[C@@H]2CCCN2C(=O)[C@H](CCc2ccc(C(F)(F)F)c(Cl)c2)NC(=O)CN(C)C(=O)[C@H](CC2CCCCC2)N(C)C(=O)CN(C)C(=O)CN(C)C1=O [Compound 1938] ([NMeL]I[Sar][Sar][NMeCha][Sar][hPhe(3-Cl-4-CF3)]P[Ac5c][NMeI][NMeD]-{3Oxa8azabicyclo(3.2.1)octane}; lactam N-11) | 0.00076 µM | 0.02 to 0.05 µM
